Laboratory results as given in publication PMC12586598, “A novel long-acting C5a-blocking cyclic peptide prevents sepsis-induced organ dysfunction via effective blockade of the inflammatory cascade” (Signal Transduction and Targeted Therapy, 2025).
Where a SMILES comes first, the peptide text is derived from it.

Assays:
human C5a = biological target: T1, human C5a (Homo sapiens, UniProt P01031); assay: SPR binding affinity assay, immobilized human C5a
T1 construct: human C5a (ACROBiosystems, Beijing, China); purchased ACROBiosystems
T1 sequence (P01031 678-751 limits assumed): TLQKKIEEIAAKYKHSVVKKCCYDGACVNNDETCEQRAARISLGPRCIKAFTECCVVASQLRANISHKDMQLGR
Protocol: (§1) Surface plasmon resonance (SPR) analysis was conducted using Biacore 2000 system (GE Healthcare, Germany) at 37°C in running buffer (20 mM Tris-HCl, pH 7.4, 150 mM NaCl, 5 mM KCl, 1 mM MgCl₂, 1 mM CaCl₂). The CM5 sensor chips (GE Healthcare) were activated with NHS/EDC, followed by immobilization of mouse C5a (ACROBiosystems, Beijing, China), human C5a (ACROBiosystems, Beijing, China), mouse C5 (ACROBiosystems, Beijing, China) or mouse C5a-desArg (MCE, Shanghai, China). The peptide-protein interactions were characterized using a concentration-gradient approach (low to high) with a continuous flow rate of 30 μL/min (150 s injection duration). Between analyte concentrations, the sensor surface was regenerated with 10 mM glycine-HCl (pH 2.0; 5 min treatment). Binding and dissociation constants were obtained by globally fitting the data to a 1:1 Langmuir binding model using a Biacore Insight evaluation software (Cytiva, USA).

mouse C5a [1] = biological target: T2, mouse C5a (Mus musculus, UniProt P06684); assay: Plasma C5a/C5 ratio by ELISA after Cp1; type: in vivo; details: 100 μg/20 g, normal mice or CLP model mice
T2 sequence (P06684 679-755 limits assumed): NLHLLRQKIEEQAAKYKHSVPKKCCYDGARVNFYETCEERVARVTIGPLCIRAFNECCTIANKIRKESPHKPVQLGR
Excerpt: We evaluated the in vivo neutralization of Cp1 against C5a by measuring the plasma C5a/C5 ratio in normal mice or CLP model mice.

CLP model mice = assay: cfDNA and neutrophil elastase in plasma of CLP mice; type: in vivo, mouse; details: 100 μg/20 g, 24 h after CLP surgery, relative to Sham set as 0%
Protocol: To determine the levels of cfDNA and elastase in plasma, blood samples were collected, and plasma was prepared 24 h after CLP surgery. cfDNA was extracted via the VAHTS Serum/Plasma Circulating DNA Kit (Vazyme, Nanjing) and quantified via qPCR. Elastase was quantified via an NE ELISA Kit (Cusabio, Wuhan).

PMNs = assay: Neutrophil phagocytosis (BioParticles and live bacteria), flow cytometry; type: cell-based, human; details: 6 h hC5a stimulation; E. coli and S. aureus BioParticles and live bacteria
Protocol: To assess the phagocytic function of neutrophils, PMNs were stimulated with hC5a or hC5a/Cp1 complexes for 6 h, followed by incubation with 20 μL of Red E. coli BioParticles™ or Green S. aureus BioParticles™ (Invitrogen, USA) at 37 °C for 0.5 h in the dark.[44] After being washed with precooled PBS and centrifuged (40 × g, 5 min), the samples were subjected to flow cytometric quantification for phagocytosis analysis. For the live bacterial phagocytosis assay, 2 × 10^5 PMNs were prestimulated with 100 ng of hC5a or hC5a/Cp1 complexes for 6 h. The PMNs were incubated with DMAO-labeled E. coli (ATCC 25922) or S. aureus (ATCC 29213) at an MOI (multiplicity of infection) of 10 for 0.5 h at 37 °C in the dark, followed by pretreatment with precooled gentamicin (50 μg/mL). The intracellular fluorescence intensity of PMNs was quantified via flow cytometry.

CLP-induced septic mice [2] = assay: Inflammatory factors and chemokines in PLF, Luminex, CLP mice; type: in vivo, mouse
Protocol: Twenty-four hours later, whole blood and PLF were collected under anesthesia. The plasma and PLF supernatants were further isolated via centrifugation (3000 × g, 10 min, 4 °C) and subjected to inflammatory factor and chemokine profiling via the Luminex® multiplex […] Biotechnologies, Shanghai, China). The percent inhibition was calculated relative to that of the sham group (set as 0%).

CLP-induced septic mice [3] = assay: Kaplan-Meier survival of CLP model mice; type: in vivo, mouse
Protocol: The cecal ligation and puncture (CLP) model was established in male C57BL/6 mice (9-10 weeks old). Briefly, a midline laparotomy was performed to exteriorize the cecum under general anesthesia. The cecum was ligated at the distal three-quarters using sutures. Subsequently, a single through-and-through puncture was made in the ligated segment using a 22-gaμge needle, followed by small volume of fecal content was gentle extrusion. The cecum was then repositioned within abdominal cavity, and the laparotomy incision was closed in layers. All animals were administered 1 mL of sterile saline for postoperative fluid resuscitation. Sham-operated controls underwent identical surgical procedures without cecal ligation or puncture. In this work, mice received administration via intravenous injection 1 hour after CLP surgery. The animal mortality was determined by the presence of confirmed death. […] Blood samples were collected 24 hours after CLP-modeling for hematological analysis (Mindray BC-60R Vet) and biochemical analysis (Mindray BS-240 Vet, China), endothelial injury analysis (Njjcbio, Nanjing) and coagulation analysis (Legene, Beijing). Subsequently, mice were sacrificed to collect the main organs for morphological and pathological analysis.

normal mice = assay: Systemic safety evaluation in normal mice; type: in vivo; details: 100 μg/20 g i.v., 24 h
Protocol: The cytotoxic potential of cyclic-peptides was evaluated in HUVECs and RAW 264.7 cells. Cells were incubated with serially diluted Cp1 (1 pg-100 μg/mL) for 24 hours at 37°C in a 5% CO₂ humidified atmosphere, followed by cell viability assessment using CCK-8 kit (Dojindo, Japan). For systemic safety evaluation, whole blood samples were collected for hematological analysis, biochemistry analysis and inflammatory profiling analysis. Following euthanasia, major organs were harvested, fixed and processed for H&E staining.

[4] = mouse, 24 h
Excerpt: The peptides in the plasma were extracted with 15% TFA and quantified via reversed-phase high-performance liquid chromatography (HPLC) (Agilent 1260, USA).

mouse C5a [5] = biological target: T2, mouse C5a; assay: SPR binding affinity assay, immobilized mouse C5a; parameters: immobilization of mouse C5a (ACROBiosystems, Beijing, China); purchased ACROBiosystems
Protocol: as §1

[6] = 100 μg/20 g, 24 h after CLP, relative to Sham set as 0%

For `CSCC[C@@H]1NC(=O)[C@@H]2CCCN2C(=O)[C@H](CCSC)NC(=O)[C@H](CO)NC(=O)[C@H](Cc2c[nH]cn2)NC(=O)CNC(=O)[C@H](CO)NC(=O)[C@H](Cc2ccccc2)NC(=O)[C@H](CCCNC(=N)N)NC(=O)[C@H](CCC(=O)O)NC(=O)[C@H](Cc2ccccc2)NC(=O)[C@H](C(C)C)NC1=O` [Cp1] (cyclo(HSMPMVFERFSG)), the kon (human C5a; pH 7.4, read-out: Ka vs hC5a (SPR)) was 53300 M⁻¹ s⁻¹, the koff (human C5a; read-out: Kd (dissociation rate) vs hC5a (SPR)) was 0.395 s⁻¹ and the “plasma C5a/C5 ratio” value (mouse C5a [1]) was “decreased ratio of C5a/C5”. The “decrease of plasma neutrophil elastase (NE)” value (CLP model mice; ELISA) was 100%, the “decrease of plasma cfDNA” value (CLP model mice; qPCR) was 68% and the “effect on C5a-induced phagocytic impairment in PMNs” value (PMNs) was “effectively mitigated C5a-induced phagocytic impairment”. The “decrease of CCL2 in PLF” value (CLP-induced septic mice [2]; [6]) was 96%, the “decrease of CCL3 in PLF” value (CLP-induced septic mice [2]; [6]) was 87% and the “decrease of CCL5 in PLF” value (CLP-induced septic mice [2]; [6]) was 89%. The “decrease of CCL7 in PLF” value (CLP-induced septic mice [2]; [6]) was 69%, the “decrease of CCL12 in PLF” value (CLP-induced septic mice [2]; [6]) was 90% and the “decrease of CXCL1 in PLF” value (CLP-induced septic mice [2]; [6]) was 75%. The “decrease of CXCL5 in PLF” value (CLP-induced septic mice [2]; [6]) was 94%, the “decrease of IL-1β in PLF” value (CLP-induced septic mice [2]; [6]) was 62% and the “decrease of IL-6 in PLF” value (CLP-induced septic mice [2]; [6]) was 73%. The “decrease of TNF-α in PLF” value (CLP-induced septic mice [2]; [6]) was 77%, the “expression of inflammatory factors and chemokines in PLF, high dose” value (CLP-induced septic mice [2]; 300 μg of Cp1) was “effectively suppressed” and the “attenuation of IL-6 in PLF” value (CLP-induced septic mice [2]; CLP-induced septic mice, first of four 'corresponding' values) was 3.7 fold. For the same compound, the “attenuation of CXCL1 in PLF” value (CLP-induced septic mice [2]; CLP-induced septic mice, fourth of four 'corresponding' values) was 4.3 fold, the “attenuation of CCL2 in PLF” value (CLP-induced septic mice [2]; CLP-induced septic mice, third of four 'corresponding' values) was 25 fold and the “improvement in the median survival time vs untreated CLP group” value (CLP-induced septic mice [3]; mouse, in vivo) was 300%. The 7-day survival rate (CLP-induced septic mice [3]; single administration 100 μg/20 g, n = 10) was 60%, the “hepatorenal toxicity and tissue injury (blood biochemistry, histopathology)” value (normal mice) was “no hepatorenal toxicity or tissue injury” and the “stability in normal plasma” value [4] was “comparable stabilities”. The kon (mouse C5a [5]; pH 7.4, read-out: Ka vs mC5a (SPR)) was 63800 M⁻¹ s⁻¹ and the koff (mouse C5a [5]; read-out: Kd (dissociation rate) vs mC5a (SPR)) was 0.359 s⁻¹.
